We go through four molecules from patent publication US20240196893A1, “LOW TOXICITY COMPOUNDS FOR USE AS INSECTICIDES AND METHOD OF PRODUCING SAID COMPOUNDS” (UNIVERSIDADE DO PORTO, priority 2021, published 2024).

One data set relates to human keratinocytes. The experiment in a line: Viability of human keratinocytes (resazurin). The class given is cell-based. To be noted: 50 μg/mL, 24 hours. The method, then: Results represent the mean±SEM of at least three independent experiments, each of them performed in triplicate: **<0.01, ***p<0.001.
The compound (6a) of the present application has no toxicity in human cells, contrarily to the ginkgolic acid (1), or the synthetic commercial insecticide evaluated as benchmark (chlorpyrifos) (FIG. 3), as assessed by cultivating human keratinocytes in the same cell density, exposing them to either compound (6a) or chlorpyrifos at the same concentration (50 μg/mL) and assessing cell viability after 24 hours using resazurin.
(Resazurin is reduced to fluorescent resorufin, in cell work by metabolically active cells.)

The subject of data set [1] is insect effector caspase DRICE. The experiment in a line: Caspase-like activity in insect cells (DEVD-aminoluciferin substrate). The class given is cell-based. The conditions noted are these: 50 μg/mL. The method, then:
The compound (6a) of the present application presents a mechanism of action distinct of the commercial insecticide chlorpyrifos, which may be of interest as a strategy to overcome pesticide resistances. Specifically, the compound (6a) is capable of activating insect effector caspase DRICE (involved in the process of cell death), while the commercial insecticide is unable to trigger this effect and has no impact in this target (FIG. 4). This was evaluated by incubating cells with the same cellular density with the proluminescent substrate DEVD-aminoluciferin, which becomes […] after cleavage by effector caspases, being detected subsequently in a luminescence detector.

In data set [2] the test system is Sf9 cells. To be noted: Sf9 insect cells, 100 μg/mL, prior studies; cited from earlier work.
The test system of data set [3] is Sf9 cells. The experiment in a line: Viability of Sf9 insect cells (resazurin). The class given is cell-based, Spodoptera frugiperda. From the text:
Results represent the mean+SEM of at least three independent experiments, each of them performed in triplicate: *p<0.05, **p<0.01, ***p<0.001.

SMILES strings stand for the structures.

Take `CCOP(=S)(OCC)Oc1nc(Cl)c(Cl)cc1Cl` [chlorpyrifos, O,O-diethyl O-(3,5,6-trichloropyridin-2-yl) phosphorothioate]: in the data set with human keratinocytes, the “loss of cell viability” value is “ca. 20%”. In addition, the “caspase-like activity, increase over basal level” value (“caspase-like activity, increase” below) in data set [1] is “no statistically significant changes”.
On to `CCCCCCC=CCCCCCCCCCc1cccc(O)c1C(=O)O` [compound 1, 2-(heptadec-10-en-1-yl)-6-hydroxybenzoic acid], for which the loss of viability result in the data set on Sf9 cells [2] is recorded as “ca. 75%”. Moreover, in data set [1], the “caspase-like activity, increase” value is listed as “no increase”.
As to `CCCCCCC=CCCCCCCCCCc1cccc(OC)c1C(=O)O` [compound 2, 2-(heptadec-10-en-1-yl)-6-methoxybenzoic acid], the “activity in Sf9 insect cells (compared with compound 1)” value with Sf9 cells [3] (Sf9 insect cells) is “lower activity”.
With `CCCCCCCCCCCCNc1ccccc1C(=O)O` [compound 6a, 2-(dodecylamino) benzoic acid], the “loss of cell viability relative to chlorpyrifos” value in the data set with Sf9 cells [3] (Spodoptera frugiperda cells, 100 μg/mL, 24 hours, resazurin) was “more than the triple”. The “caspase-like activity, increase” value in data set [1] amounted to 400%.
